Test results taken from patent publication US11420969B2 (Exonate Limited, priority 2017, dated 2022).

Columns and labels:
SRPK1 = SRPK1 (Homo sapiens, UniProt Q96SB4); assay: In vitro SRPK1 assay (Kinase-Glo); format: biochemical
CYP1A2 = molecular target: T1, CYP1A2 (Homo sapiens, UniProt P05177); assay: CYP inhibition assay, human liver microsomes, substrate tacrine; format: in vitro ADME; details: human liver microsomes, 10 min incubation, LC-MS/MS; read-out: CYP Inhibition Activity (IC50/nM) CYP1A2
T1 construct: from tissue; host or cells: human liver microsomes
T1 sequence (P05177 1-516): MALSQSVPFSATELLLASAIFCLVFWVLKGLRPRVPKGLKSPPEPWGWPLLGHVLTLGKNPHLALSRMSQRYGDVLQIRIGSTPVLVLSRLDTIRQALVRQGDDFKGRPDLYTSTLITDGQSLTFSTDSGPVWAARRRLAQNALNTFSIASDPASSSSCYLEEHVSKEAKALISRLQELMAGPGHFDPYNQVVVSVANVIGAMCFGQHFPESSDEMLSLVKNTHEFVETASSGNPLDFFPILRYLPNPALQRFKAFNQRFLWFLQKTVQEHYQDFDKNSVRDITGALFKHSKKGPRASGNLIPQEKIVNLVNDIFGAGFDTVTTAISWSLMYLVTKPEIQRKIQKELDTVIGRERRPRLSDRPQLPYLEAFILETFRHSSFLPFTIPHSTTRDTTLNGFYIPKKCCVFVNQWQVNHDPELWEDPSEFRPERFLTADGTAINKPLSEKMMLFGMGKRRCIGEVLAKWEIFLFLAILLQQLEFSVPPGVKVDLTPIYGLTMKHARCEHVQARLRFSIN
Method in brief: (§1)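 Human liver microsomes with pooled substrates, test compound or positive inhibitor pre-incubated 20 min at 37° C, then NADPH-started reaction for 10 min at 37° C. Stopped with cold acetonitrile; metabolites quantified by LC-MS/MS, giving % inhibition and IC50.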

CYP2C9 = molecular target: T2, CYP2C9 (Homo sapiens, UniProt P11712); assay: CYP inhibition assay, human liver microsomes, substrate diclofenac; format: in vitro ADME; details: human liver microsomes, 10 min incubation, LC-MS/MS; read-out: CYP Inhibition Activity (IC50/nM) CYP2C9
T2 construct: from tissue; host or cells: human liver microsomes
Method in brief: as §1

CYP2C19 = molecular target: T3, CYP2C19 (Homo sapiens, UniProt P33261); assay: CYP inhibition assay, human liver microsomes, substrate S-mephenytoin; format: in vitro ADME; details: human liver microsomes, 10 min incubation, LC-MS/MS; read-out: CYP Inhibition Activity (IC50/nM) CYP2C19
T3 construct: from tissue; host or cells: human liver microsomes
Method in brief: as §1

CYP2D6 = molecular target: T4, CYP2D6 (Homo sapiens, UniProt P10635); assay: biochemical; format: in vitro ADME
T4 construct: from tissue; host or cells: human liver microsomes
Method in brief: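 Human liver microsomes (0.253 mg/mL working stock) pre-incubated with compound and substrate pool at 37° C for 20 min. Reaction started with NADPH and run 10 min at 37° C, stopped with cold ACN. Metabolite analysed by LC-MS/MS; % inhibition and IC50 calculated versus inhibitor-free control.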

CYP3A4 = molecular target: T5, CYP3A4 (Homo sapiens, UniProt P08684); assay: CYP inhibition assay, human liver microsomes, substrate midazolam; format: in vitro ADME; details: human liver microsomes, 10 min incubation, LC-MS/MS; read-out: CYP Inhibition Activity (IC50/nM) CYP3A4
T5 construct: from tissue; host or cells: human liver microsomes
Method in brief: as §1

T5 sequence (P08684 whole entry): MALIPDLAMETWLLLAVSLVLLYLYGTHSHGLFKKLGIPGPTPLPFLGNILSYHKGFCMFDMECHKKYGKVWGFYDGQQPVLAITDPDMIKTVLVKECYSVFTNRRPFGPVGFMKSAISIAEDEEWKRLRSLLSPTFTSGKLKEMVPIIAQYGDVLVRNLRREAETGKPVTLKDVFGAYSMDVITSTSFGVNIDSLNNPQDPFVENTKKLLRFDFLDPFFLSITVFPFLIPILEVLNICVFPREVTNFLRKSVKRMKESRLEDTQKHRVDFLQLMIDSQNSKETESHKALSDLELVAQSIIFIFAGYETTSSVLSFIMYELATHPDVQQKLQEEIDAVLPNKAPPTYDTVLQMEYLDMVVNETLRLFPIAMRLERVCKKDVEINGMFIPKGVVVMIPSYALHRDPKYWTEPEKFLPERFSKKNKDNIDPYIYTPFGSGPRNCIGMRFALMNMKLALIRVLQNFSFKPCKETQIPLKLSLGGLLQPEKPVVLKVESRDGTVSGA
T4 sequence (P10635 whole entry): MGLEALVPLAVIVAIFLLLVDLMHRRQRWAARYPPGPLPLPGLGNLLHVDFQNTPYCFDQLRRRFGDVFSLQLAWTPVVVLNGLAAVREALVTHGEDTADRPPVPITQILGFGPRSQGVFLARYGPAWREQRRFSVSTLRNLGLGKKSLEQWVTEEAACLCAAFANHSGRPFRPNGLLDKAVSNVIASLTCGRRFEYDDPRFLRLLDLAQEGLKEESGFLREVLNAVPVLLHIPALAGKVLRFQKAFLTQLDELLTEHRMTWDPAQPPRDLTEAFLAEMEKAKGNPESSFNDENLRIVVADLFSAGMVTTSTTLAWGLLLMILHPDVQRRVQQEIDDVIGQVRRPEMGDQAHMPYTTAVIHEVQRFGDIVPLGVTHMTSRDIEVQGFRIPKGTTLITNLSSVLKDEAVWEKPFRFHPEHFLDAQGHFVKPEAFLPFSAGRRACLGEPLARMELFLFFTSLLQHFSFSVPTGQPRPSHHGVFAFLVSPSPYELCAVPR
SRPK1, sequence (Q96SB4 whole entry, species assumed): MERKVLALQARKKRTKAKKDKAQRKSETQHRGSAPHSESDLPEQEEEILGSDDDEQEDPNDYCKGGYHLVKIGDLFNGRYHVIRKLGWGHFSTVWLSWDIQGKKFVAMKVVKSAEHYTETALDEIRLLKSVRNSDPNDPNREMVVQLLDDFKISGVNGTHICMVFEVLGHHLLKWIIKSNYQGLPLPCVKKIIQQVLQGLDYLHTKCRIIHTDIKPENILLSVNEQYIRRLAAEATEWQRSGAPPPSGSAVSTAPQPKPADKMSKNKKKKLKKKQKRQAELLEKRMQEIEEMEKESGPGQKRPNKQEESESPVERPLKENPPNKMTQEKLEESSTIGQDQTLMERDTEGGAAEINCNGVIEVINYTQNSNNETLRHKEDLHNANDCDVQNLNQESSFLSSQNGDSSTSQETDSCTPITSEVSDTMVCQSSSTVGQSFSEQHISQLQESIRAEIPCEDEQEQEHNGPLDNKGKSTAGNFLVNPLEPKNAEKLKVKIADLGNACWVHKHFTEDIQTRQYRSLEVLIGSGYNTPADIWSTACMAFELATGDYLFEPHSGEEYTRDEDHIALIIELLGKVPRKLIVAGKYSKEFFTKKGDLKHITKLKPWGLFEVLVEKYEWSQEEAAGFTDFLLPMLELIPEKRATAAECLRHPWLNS
T3 sequence (P33261 whole entry): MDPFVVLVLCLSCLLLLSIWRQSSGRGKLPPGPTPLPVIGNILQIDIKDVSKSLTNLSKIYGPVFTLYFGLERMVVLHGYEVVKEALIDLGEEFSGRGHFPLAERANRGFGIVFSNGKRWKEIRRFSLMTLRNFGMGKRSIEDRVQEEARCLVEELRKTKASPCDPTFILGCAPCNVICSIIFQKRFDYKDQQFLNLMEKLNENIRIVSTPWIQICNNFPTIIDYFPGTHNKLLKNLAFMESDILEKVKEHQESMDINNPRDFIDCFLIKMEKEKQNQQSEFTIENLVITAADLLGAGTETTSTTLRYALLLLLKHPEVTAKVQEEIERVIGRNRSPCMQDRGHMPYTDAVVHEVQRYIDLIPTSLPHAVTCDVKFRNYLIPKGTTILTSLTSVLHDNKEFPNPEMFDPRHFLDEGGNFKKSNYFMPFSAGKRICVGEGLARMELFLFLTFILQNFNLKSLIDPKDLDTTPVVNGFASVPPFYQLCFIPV
T2 sequence (P11712 whole entry): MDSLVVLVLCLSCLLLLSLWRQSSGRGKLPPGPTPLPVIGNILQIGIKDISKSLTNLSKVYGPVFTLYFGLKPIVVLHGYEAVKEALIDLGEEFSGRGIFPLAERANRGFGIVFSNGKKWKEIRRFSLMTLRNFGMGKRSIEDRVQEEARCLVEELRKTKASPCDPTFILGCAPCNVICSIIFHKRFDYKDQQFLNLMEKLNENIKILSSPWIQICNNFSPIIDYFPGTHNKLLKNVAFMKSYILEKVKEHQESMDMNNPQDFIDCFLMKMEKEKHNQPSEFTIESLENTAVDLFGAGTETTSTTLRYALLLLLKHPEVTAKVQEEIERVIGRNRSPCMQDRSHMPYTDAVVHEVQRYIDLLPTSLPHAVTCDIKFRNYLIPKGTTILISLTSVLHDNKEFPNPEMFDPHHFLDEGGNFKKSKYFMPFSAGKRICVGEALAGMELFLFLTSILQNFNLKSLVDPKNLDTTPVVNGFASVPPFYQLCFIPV

| Structure (SMILES) | IC50 (SRPK1) | IC50 (CYP1A2) | IC50 (CYP2C9) | IC50 (CYP2C19) | IC50 (CYP2D6) | IC50 (CYP3A4) |
| --- | --- | --- | --- | --- | --- | --- |
| CC1(C(N)=O)CCN(c2ccc(C(F)(F)F)cc2NC(=O)c2ccc(-c3ccncc3)o2)CC1 [Example 72, 4-methyl-1-(2-(5-(pyridin-4-yl)furan-2-carboxamido)-4-(trifluoromethyl)phenyl)-piperidine-4-carboxamide] | 1.9 nM | > 30000 nM | 2360 nM | 7540 nM | 4130 nM | 2370 nM |
| CNC(=O)C1(C)CCN(c2ccc(C(F)(F)F)cc2NC(=O)c2ccc(-c3ccncc3)o2)CC1 [Example 73, N,4-dimethyl-1-(2-(5-(pyridin-4-yl)furan-2-carboxamido)-4-(trifluoromethyl)phenyl)-piperidine-4-carboxamide] | 5.6 nM | > 30000 nM | 690 nM | 1870 nM | 1610 nM | 470 nM |
| CN(C)C(=O)C1(C)CCN(c2ccc(C(F)(F)F)cc2NC(=O)c2ccc(-c3ccncc3)o2)CC1 [Example 74, N,N,4-trimethyl-1-(2-(5-(pyridin-4-yl)furan-2-carboxamido)-4-(trifluoromethyl)phenyl)-piperidine-4-carboxamide] | 2.9 nM | > 30000 nM | 1130 nM | 2890 nM | 1550 nM | 720 nM |
| CC1(C(N)=O)CCN(c2ccc(C(F)(F)F)cc2NC(=O)c2ccc(C3CCOCC3)o2)CC1 [Example 75, 4-methyl-1-(2-(5-(tetrahydro-2H-pyran-4-yl)furan-2-carboxamido)-4-(trifluoromethyl)-phenyl)piperidine-4-carboxamide] | 2.8 nM | > 30000 nM | 4400 nM | 10800 nM | 11800 nM | 10300 nM |
| CNC(=O)C1(C)CCN(c2ccc(C(F)(F)F)cc2NC(=O)c2ccc(C3CCOCC3)o2)CC1 [Example 76, N,4-dimethyl-1-(2-(5-(tetrahydro-2H-pyran-4-yl)furan-2-carboxamido)-4-(trifluoromethyl)-phenyl)piperidine-4-carboxamide] | 3.2 nM | > 30000 nM | 1700 nM | 4250 nM | 8680 nM | 750 nM |
| CN(C)C(=O)C1(C)CCN(c2ccc(C(F)(F)F)cc2NC(=O)c2ccc(C3CCOCC3)o2)CC1 [Example 77, N,N,4-trimethyl-1-(2-(5-(tetrahydro-2H-pyran-4-yl)furan-2-carboxamido)-4-(trifluoromethyl)-phenyl)piperidine-4-carboxamide] | 1.6 nM | > 30000 nM | 1440 nM | 4780 nM | 9540 nM | 970 nM |
| CC1(CN)CCN(c2ccc(C(F)(F)F)cc2NC(=O)c2ccc(-c3ccncc3)o2)CC1 [Example 78, N-(2-(4-(aminomethyl)-4-methylpiperidin-1-yl)-5-(trifluoromethyl)phenyl)-5-(pyridin-4-yl)furan-2-carboxamide] | 9.1 nM | > 30000 nM | 9130 nM | 20000 nM | 1290 nM | 8320 nM |
| CNCC1(C)CCN(c2ccc(C(F)(F)F)cc2NC(=O)c2ccc(-c3ccncc3)o2)CC1 [Example 79, N-(2-(4-methyl-4-((methylamino)-methyl)piperidin-1-yl)-5-(trifluoromethyl)phenyl)-5-(pyridin-4-yl)furan-2-carboxamide] | 263 nM | > 30000 nM | > 30000 nM | 17800 nM | 400 nM | 4500 nM |
| CN(C)CC1(C)CCN(c2ccc(C(F)(F)F)cc2NC(=O)c2ccc(-c3ccncc3)o2)CC1 [Example 80, N-(2-(4-((dimethylamino)methyl)-4-methyl-piperidin-1-yl)-5-(trifluoromethyl)phenyl)-5-(pyridin-4-yl)furan-2-carboxamide] | 42 nM | > 30000 nM | 7640 nM | 7340 nM | 1040 nM | 3540 nM |
